Series [1] can be described thus: Bulk density of the residue. It is filed as physicochemical. The conditions noted are these: residue after drying. From the text:
The solution was then freeze dried (lyophilized), producing a residue with a bulk density of 0.061 gram/cm^3.
The solution was then spray-dried, producing a residue with a bulk density of 0.269 gram/cm^3.

A short description of series [2]: Retention of amorphous character after pressing (powder X-ray diffraction). It is filed as physicochemical. The conditions noted are these: pressed at 10,000 Kg/cm^3 for 1 minute; X-ray diffractogram. The method, then: X-ray diffraction data were acquired using a PHILIPS X-ray diffractometer model PW1050-70. System description: Kα1=1.54178 Å, voltage 40 kV, current 28 mA, diversion slit=1°, receiving slit=0.2 mm, scattering slit=1° with a Graphite monochromator. Experiment parameters: pattern measured between 2θ=4° and 2θ=30° with 0.05° increments; count time was 0.5 second per increment.
The X-ray analysis of the residue gave a featureless diffractogram with a broad peak centered at 2θ about 22°, showing the residue was amorphous. The residue was pressed at 10,000 Kg/cm^3 for 1 minute.
The residue was then pressed at 10,000 Kg/cm3 for 1 minute.

Molecule `CC(C)(O)c1ccccc1CC[C@@H](SCC1(CC(=O)[O-])CC1)c1cccc(/C=C/c2ccc3ccc(Cl)cc3n2)c1.[Na+]` [Example 1, Amorphous Montelukast Sodium] came in with a bulk density in series [1] of 0.269 gram/cm^3. In series [2], the “amorphous character after pressing” value was “remained amorphous”. The molecule `CC(C)(O)c1ccccc1CC[C@@H](SCC1(CC(=O)[O-])CC1)c1cccc(/C=C/c2ccc3ccc(Cl)cc3n2)c1.[Na+]` [Reference Example 1, Amorphous Montelukast Sodium, reference compound] gave a bulk density in series [1] of 0.061 gram/cm^3.

The record behind these values is US7544805B2 (Chemagis Ltd., priority 2004, dated 2009).
